Laboratory results as given in paper PMC6930660, “Synthesis and Comparative Structure–Activity Study of Carbohydrate-Based Phenolic Compounds as α-Glucosidase Inhibitors and Antioxidants” (Molecules, 2019).
Values joined by “and” are separate entries in the source; they are usually repeats but may differ in a detail not shown here. Identical values can stand only once.

What was measured:
[1] = DPPH radical scavenging assay (antioxidant activity); settings: for EC50: MES-NaOH buffer pH 6.0, 15 min in the dark; for Antioxidant Trolox-eq (TE): trolox-equivalent (mol-trolox/mol-sample) = slope of sample / slope of trolox
Procedure: The antioxidant activity was assessed by employing the 2,2-diphenyl-1-picrylhydrazyl (DPPH) radical scavenging assay, according to the previously published method. In total, 100 μL of each sample (1000–10 μg/mL in 50%EtOH/ H2O ) or trolox (160–0 μM in 50% EtOH/ H2O ), and 50 μL of 2-(N-morpholino)ethanesulfonic acid (MES)-NaOH buffer (200 mM, pH = 6.0), and 50 μL of an 800 μM DPPH diluted in 99.5% EtOH were mixed in 96-well plates. Following shaking the microplate for 15 min in the dark, the absorbance was recorded at 520 nm using a microplate reader (Bio-Rad, Model 680). Effective percentages (%) were calculated as follows: Effective percentages (%) = 1−As/Ab ×100 where As is the absorbance of the sample and Ab is the absorbance of the blank (without samples, 50% EtOH/ H2O solution was used instead).
The trolox-equivalent (sample-mol/trolox-mol) was calculated as follows: Trolox−equivalent (mol−trolox/mol−sample) = Ss/St where Ss is the slope of the sample and St is the slope of trolox.

rat α-glucosidase = test: α-glucosidase inhibitory activity assay (FUJIFILM kit, maltose substrate, glucose measured by mutarotase-GOD method); type: biochemical; settings: for IC50: rat α-glucosidase, 18.5 mM maltose, maleic anhydride buffer pH 6.0, 37 °C, 30 min, mean ± S.D. of n = 2; for α-glucosidase inhibitory activity, fold higher than acertannin (37): relative to acertannin (37)
Procedure: The α-glucosidase inhibitory activity of all samples was assayed utilizing a commercially available FUJIFILM α-glucosidase inhibitory activity assay kit. In total, 25 μL of each sample (25–2000 μg/mL in H2O ) or acarbose (0.5–8 μg/mL in H2O ), 50 μL of 18.5 mM maltose diluted in maleic anhydride buffer (100 mM, pH = 6.0), and 25 μL of the rat α-glucosidase solution were incubated in a micro-tube at 37 °C for 30 min. Subsequently, 400 μL of purified water was added to the solution and the reaction mixture was boiled for 3 min to deactivate α-glucosidase. The generated glucose was measured by LabAssay™ glucose (mutarotase-GOD method). In total, 100 μL of the reaction solution and 150 μL of the coloring solution were incubated in 96-well plates at 37 °C for 10 min, and the absorbance was recorded at 505 nm using a microplate reader (Bio-Rad, Model 680). The inhibition percentage was calculated using the following Equation: Inhibition percentage (%) = 1−As−Ab/Ac ×100 where As is the absorbance of the analyzed sample, Ab is the absorbance of the blank (immediate deactivation), and Ac is the absorbance of the control ([…]). Acarbose was used as the positive control.

## O=C(O[C@H]1[C@H](O)[C@@H](CO)OC[C@@H]1OC(=O)c1cc(O)c(O)c(O)c1)c1cc(O)c(O)c(O)c1 [Compound 35, 1,5-Anhydro-2,3-bis-O-(3′,4′,5′-trihydroxybenzoyl)-D-glucitol]
[1]; mean ± S.D. of n = 3
  EC50: 11.3 ± 0.98 µM
  Antioxidant Trolox-eq (TE): 4.29 ± 0.23
Rat α-glucosidase
  IC50: 20.5 ± 0.5 µM
Rat α-glucosidase; relative to gallic acid
  α-glucosidase inhibitory activity relative to gallic acid: three-times higher

## C[C@H]1O[C@H](O[C@H]2[C@H](O)[C@@H](O)[C@@H](O[C@H]3[C@H](O)[C@@H](O)C(O)O[C@@H]3CO)O[C@@H]2CO)[C@H](O)[C@@H](O)[C@@H]1N[C@H]1C=C(CO)[C@@H](O)[C@H](O)[C@H]1O (stereo partly shown) [Acarbose, reference compound]
Rat α-glucosidase
  IC50: 0.11 ± 0.02 µM

## O=C(O[C@H]1[C@H](OC(=O)c2cc(O)c(O)c(O)c2)[C@@H](CO)OC[C@@H]1O)c1cc(O)c(O)c(O)c1 [Compound 38, 1,5-Anhydro-3,4-bis-O-(3′,4′,5′-trihydroxybenzoyl)-D-glucitol]
[1]; mean ± S.D. of n = 3
  EC50: 14.8 ± 0.56 µM
  Antioxidant Trolox-eq (TE): 3.55 ± 0.42
Rat α-glucosidase
  IC50: 91.4 ± 6.56 µM

## O=C(OC[C@H]1OC[C@H](OC(=O)c2cc(O)c(O)c(O)c2)[C@@H](O)[C@@H]1O)c1cc(O)c(O)c(O)c1 [Compound 37, 1,5-Anhydro-2,6-bis-O-(3′,4′,5′-trihydroxybenzoyl)-D-glucitol]
[1]; mean ± S.D. of n = 3
  EC50: 15.2 ± 0.53 µM
  Antioxidant Trolox-eq (TE): 3.32 ± 0.37
Rat α-glucosidase
  IC50: 35.6 ± 2.58 µM

## COC(=O)c1cc(O)c(O)c(O)c1 [Methyl gallate, reference compound]
[1]; mean ± S.D. of n = 3
  EC50: 19.6 ± 0.11 µM
  Antioxidant Trolox-eq (TE): 2.42 ± 0.27
Rat α-glucosidase
  IC50: 90.5 ± 6.97 µM

## O=C(OC[C@H]1OC(O)[C@H](OC(=O)c2cc(O)c(O)c(O)c2)[C@@H](OC(=O)c2cc(O)c(O)c(O)c2)[C@@H]1OC(=O)c1cc(O)c(O)c(O)c1)c1cc(O)c(O)c(O)c1 (stereo partly drawn) [Compound 61, 2,3,4,6-tetrakis-O-(3′,4′,5′-Trihydroxybenzoyl)-α,β-D-glucopyranose]
[1]; mean ± S.D. of n = 3
  EC50: 5.6 ± 0.28 µM
  Antioxidant Trolox-eq (TE): 8.33 ± 0.49
Rat α-glucosidase
  IC50: 1.68 ± 0.21 µM
  α-glucosidase inhibitory activity, fold higher than acertannin (37): more than 13 fold

## COC(=O)c1ccc(O)c(O)c1 [Methyl 3,4-dihydroxybenzoate, methyl 3,4-dihydroxybenzoate, reference compound]
[1]; mean ± S.D. of n = 3
  EC50: 21.1 ± 1.08 µM
  Antioxidant Trolox-eq (TE): 2.20 ± 0.05
[1]; mean ± S.D. of n = 3, listed as methyl 3,4-dihydroxybenzoate
  Antioxidant Trolox-eq (TE): 2.20
Rat α-glucosidase
  IC50: > 300 µM

## COC(=O)c1cccc(O)c1 [Methyl 3-hydroxybenzoate, methyl 3-hydroxybenzoate, reference compound]
[1]
  antioxidant activity (in words): did not exhibit any notable activity
Rat α-glucosidase
  IC50: > 660 µM

## COC(=O)c1cc(O)cc(O)c1 [Methyl 3,5-dihydroxybenzoate, methyl 3,5-dihydroxybenzoate, reference compound]
[1]
  antioxidant activity (in words): did not exhibit any notable activity
Rat α-glucosidase
  IC50: > 300 µM

## O=C(O[C@H]1CO[C@H](CO)[C@@H](O)[C@@H]1O)c1cc(O)c(O)c(O)c1 [Compound 31, 1,5-Anhydro-2-O-(3′,4′,5′-trihydroxybenzoyl)-D-glucitol]
[1]; mean ± S.D. of n = 3
  EC50: 19.4 ± 1.02 µM
  Antioxidant Trolox-eq (TE): 2.04 ± 0.08
Rat α-glucosidase
  IC50: 95.1 ± 0.22 µM

## O=C(O[C@H]1[C@H](OC(=O)c2cc(O)c(O)c(O)c2)[C@@H](CO)OC[C@@H]1OC(=O)c1cc(O)c(O)c(O)c1)c1cc(O)c(O)c(O)c1 [Compound 41, 1,5-Anhydro-2,3,4-tris-O-(3′,4′,5′-trihydroxybenzoyl)-D-glucitol]
[1]; mean ± S.D. of n = 3
  EC50: 7.94 ± 0.39 µM
  Antioxidant Trolox-eq (TE): 5.59 ± 0.26
Rat α-glucosidase
  IC50: 6.72 ± 0.21 µM

## O=C(OC[C@H]1OC[C@H](OC(=O)c2cc(O)c(O)c(O)c2)[C@@H](OC(=O)c2cc(O)c(O)c(O)c2)[C@@H]1O)c1cc(O)c(O)c(O)c1 [Compound 42, 1,5-Anhydro-2,3,6-tris-O-(3′,4′,5′-trihydroxybenzoyl)-D-glucitol]
[1]; mean ± S.D. of n = 3
  EC50: 8.09 ± 0.41 µM
  Antioxidant Trolox-eq (TE): 5.75 ± 0.18
Rat α-glucosidase
  IC50: 5.34 ± 0.55 µM

## O=C(OC[C@H]1OC[C@H](OC(=O)c2cc(O)c(O)c(O)c2)[C@@H](O)[C@@H]1OC(=O)c1cc(O)c(O)c(O)c1)c1cc(O)c(O)c(O)c1 [Compound 43, 1,5-Anhydro-2,4,6-tris-O-(3′,4′,5′-trihydroxybenzoyl)-D-glucitol]
[1]; mean ± S.D. of n = 3
  EC50: 10.3 ± 0.76 µM
  Antioxidant Trolox-eq (TE): 4.31 ± 0.35
Rat α-glucosidase
  IC50: 9.34 ± 0.99 µM

## O=C(OC[C@H]1OC[C@H](O)[C@@H](O)[C@@H]1O)c1cc(O)c(O)c(O)c1 [Compound 34, 1,5-Anhydro-6-O-(3′,4′,5′-trihydroxybenzoyl)-D-glucitol]
[1]; mean ± S.D. of n = 3
  EC50: 22.9 ± 1.61 µM
  Antioxidant Trolox-eq (TE): 2.13 ± 0.12
Rat α-glucosidase
  IC50: 127.1 ± 0.88 µM

## O=C(O[C@H]1[C@H](O)[C@@H](OC(=O)c2cc(O)c(O)c(O)c2)CO[C@@H]1CO)c1cc(O)c(O)c(O)c1 [Compound 36, 1,5-Anhydro-2,4-bis-O-(3′,4′,5′-trihydroxybenzoyl)-D-glucitol]
[1]; mean ± S.D. of n = 3
  EC50: 14.3 ± 0.29 µM
  Antioxidant Trolox-eq (TE): 3.36 ± 0.13
Rat α-glucosidase
  IC50: 48.3 ± 1.25 µM

## Tellimagrandin I [reference compound]
[1]; mean ± S.D. of n = 3
  EC50: 6.31 ± 0.27 µM
  Antioxidant Trolox-eq (TE): 7.04 ± 0.37
[1]; mean ± S.D. of n = 3, listed as tellimagrandin I
  Antioxidant Trolox-eq (TE): 7.04
Rat α-glucosidase
  IC50: 3.37 ± 0.04 µM

## O=C(OC[C@H]1OC[C@H](OC(=O)c2cc(O)cc(O)c2)[C@@H](OC(=O)c2cc(O)cc(O)c2)[C@@H]1OC(=O)c1cc(O)cc(O)c1)c1cc(O)cc(O)c1 [Compound 56, 1,5-Anhydro-2,3,4,6-tetrakis-O-(3,5-dihydroxybenzoyl)-D-glucitol]
[1]
  antioxidant activity (in words): no antioxidant activity was observed
[1]; mean ± S.D. of n = 3
  EC50: > 70 µM
Rat α-glucosidase
  IC50: 9.34 ± 0.02 µM

## O=C(O[C@H]1[C@H](O)[C@@H](O)CO[C@@H]1CO)c1cc(O)c(O)c(O)c1 [Compound 33, 1,5-Anhydro-4-O-(3′,4′,5′-trihydroxybenzoyl)-D-glucitol]
[1]; mean ± S.D. of n = 3
  EC50: 20.8 ± 1.54 µM
  Antioxidant Trolox-eq (TE): 2.09 ± 0.19
Rat α-glucosidase
  IC50: 143.9 ± 0.52 µM

## O=C(OC[C@H]1OC[C@H](O)[C@@H](OC(=O)c2cc(O)c(O)c(O)c2)[C@@H]1O)c1cc(O)c(O)c(O)c1 [Compound 39, 1,5-Anhydro-3,6-bis-O-(3′,4′,5′-trihydroxybenzoyl)-D-glucitol]
[1]; mean ± S.D. of n = 3
  EC50: 11.9 ± 0.71 µM
  Antioxidant Trolox-eq (TE): 3.67 ± 0.19
Rat α-glucosidase
  IC50: 55 ± 8.84 µM

## 2,3,4,6-tetrakis-O-(3′,4′,5′-Trihydroxybenzoyl)-D-glucitol [Compound 54]
[1]; mean ± S.D. of n = 3
  EC50: 6.61 ± 0.68 µM
  Antioxidant Trolox-eq (TE): 6.77 ± 0.63
Rat α-glucosidase
  IC50: 2.56 ± 0.1 µM
  α-glucosidase inhibitory activity, fold higher than acertannin (37): more than 13 fold

## O=C(OC[C@H]1OC[C@H](OC(=O)c2ccc(O)c(O)c2)[C@@H](OC(=O)c2ccc(O)c(O)c2)[C@@H]1OC(=O)c1ccc(O)c(O)c1)c1ccc(O)c(O)c1 [Compound 55, 1,5-Anhydro-2,3,4,6-tetrakis-O-(3′,4′-dihydroxybenzoyl)-D-glucitol]
[1]; mean ± S.D. of n = 3
  EC50: 6.99 ± 0.11 µM
  Antioxidant Trolox-eq (TE): 6.54 and 6.54 ± 0.15
Rat α-glucosidase
  IC50: 3.28 ± 0.16 µM

## COC(=O)c1ccc(O)cc1 [Methyl 4-hydroxybenzoate, methyl 4-hydroxybenzoate, reference compound]
[1]
  antioxidant activity (in words): did not exhibit any notable activity
Rat α-glucosidase
  IC50: > 660 µM

## O=C(O[C@H]1[C@@H]2OC(=O)c3cc(O)c(O)c(O)c3-c3c(cc(O)c(O)c3O)C(=O)OC[C@H]2OC[C@@H]1OC(=O)c1cc(O)c(O)c(O)c1)c1cc(O)c(O)c(O)c1 [Compound 67, 1,5-Anhydro-2,3-bis-O-(3′,4′,5′-trihydroxybenzoyl)-4,6-O-hexahydroxydiphenyl-D-glucitol]
[1]; mean ± S.D. of n = 3
  EC50: 6.79 ± 0.21 µM
  Antioxidant Trolox-eq (TE): 6.44 and 6.44 ± 0.24
Rat α-glucosidase
  IC50: 3.22 ± 0.51 µM

## O=C(OC[C@H]1OC[C@H](O)[C@@H](O)[C@@H]1OC(=O)c1cc(O)c(O)c(O)c1)c1cc(O)c(O)c(O)c1 [Compound 40, 1,5-Anhydro-4,6-bis-O-(3′,4′,5′-trihydroxybenzoyl)-D-glucitol]
[1]; mean ± S.D. of n = 3
  EC50: 13 ± 1.12 µM
  Antioxidant Trolox-eq (TE): 3.78 ± 0.33
Rat α-glucosidase
  IC50: 26.6 ± 2.37 µM

## O=C(OC[C@H]1OC[C@H](O)[C@@H](OC(=O)c2cc(O)c(O)c(O)c2)[C@@H]1OC(=O)c1cc(O)c(O)c(O)c1)c1cc(O)c(O)c(O)c1 [Compound 44, 1,5-Anhydro-3,4,6-tris-O-(3′,4′,5′-trihydroxybenzoyl)-D-glucitol]
[1]; mean ± S.D. of n = 3
  EC50: 8.48 ± 0.21 µM
  Antioxidant Trolox-eq (TE): 5.36 ± 0.20
Rat α-glucosidase
  IC50: 12.6 ± 0.61 µM

## Cc1c(C)c2c(c(C)c1O)CCC(C)(C(=O)O)O2 (stereo not shown) [Trolox, reference compound]
[1]; mean ± S.D. of n = 3
  EC50: 49.4 ± 3.87 µM
